Patent US4568689A, “Pharmaceutical preparation for the treatment of hypertensive disease and myocardial infarction” (priority 1983, dated 1986)
Entries after “also recorded” stand apart in the source; their conditions may differ.

What was measured:
[1] = test system: neoepinephrine model of infarction (focal necrosis) of myocardium in rats; experiment: survival of rats with the neoepinephrine model of infarction; assay type: in vivo, rats of the Wistar line; conditions: 25 mg/kg subcutaneously, 7 days; for Percentage of survival: after 19 days; for Number of survived animals after 19 days: groups initially 12 animals
Experimental: The study of the effect produced by the preparation according to the present invention on survival of animals with a neoepinephrine model of infarction was effected in comparison with the prior art preparations--obzidan and finoptin.
The formation of a neoepinephrine model of infarction (focal necrosis) of myocardium in rats was effected by way of an every-day subcutaneous administration of a 0.1% solution of neoepinephrine in the dose of 3 mg/kg for 7 days to rats of the Wistar line with a mass of 160-200 g. The test preparations were subcutaneously administered to the rats in the form of a 1.25% aqueous solution in the dose of 25 mg/kg 0.5 hour after injection of neoepinephrine also for 7 days.

[2] = test system: experimental necrosis of myocardium caused by introduction of adrenaline; experiment: histological analysis of experimental necrosis of myocardium caused by adrenaline; assay type: in vivo, rats of the Wistar line; conditions: for changes in cardiomyocytes / changes in interstitial tissue / changes in vessels: 25 mg/kg
Experimental: A comparative study of the effects produced by the preparation according to the present invention and finoptin on an experimental necrosis of myocardium caused by introduction of adrenaline.
The experiments were carried out on rats of the Wistar line of gregarious keeping, both sexes, with a mass of 170 to 225 g. Each preparation was studied on a separate group of animals: (group of adrenaline-control, group of finoptin, group of the preparation according to the present invention). 72 rats were used in the experiments altogether. Injuries of myocardium were caused by way of a single-time subcutaneous administration of a 0.1% solution of adrenaline hydrochloride in the dose of 3 mg per kg of the rat's bodyweight. […] The preparation of this invention was administered subcutaneously, finoptin-per os. On the first day of the experiment the preparations were administered 30 minutes after injection of adrenaline hydrochloride. The experiment lasted for 19 days. Slaughters were effected on the 4th, 8th, 12th and 19th day of the experiment. The animals were decapitated. The heart was fixed in a 10% solution of neutral formalin and sealed in paraffin. Serial sections with the thickness of 5-6μ were coloured by Ehrlich hematoxylin-eosin. The state of vessels of myocardium, cardiomyocytes and interstitial tissue were evaluated by histological analysis.

[3] = test system: arterial pressure of rats with spontaneous hypertension; experiment: hypotensive effect, intraperitoneal, spontaneously hypertensive rats; assay type: in vivo
Experimental: The study of the hypotensive effect was carried out in experiments on spontaneously hypertensive male rats of the Akamoto-Aoki line aged 20-25 weeks. The prior art preparation-nifedipine was used for the purpose of comparison. The measurement of the arterial pressure was effected on the tail vein of the rats by the indirect method. The animals were divided into groups (10 in each) and trained for two weeks with the view to ensure their adaptation to the unit for the measurement of the arterial pressure. The level of the arterial pressure prior to administration of the test preparations was measured three times: two days, one day and directly prior to administration of the test preparations. The preparation was administered in the form of a 2.5% aqueous solution, nifedipine--in the form of a 2.5% suspension in Twin-80 intraperitoneally. […]

[4] = test system: arterial pressure of spontaneously hypertensive rats; experiment: effect of the oral form on arterial pressure, spontaneously hypertensive rats; assay type: in vivo; conditions: 10 mg/kg
[5] = background; cited from earlier work
[6] = background; cited from earlier work; remark: listed apart in the source
[7] = 4th day, grade/number of animals (6)
[8] = 8th day, grade/number of animals (6)
[9] = 12th day, grade/number of animals (6)
[10] = 19th day, grade/number of animals (5)
[11] = 1 mg/kg intraperitoneally, 30 minutes
[12] = 1 mg/kg intraperitoneally, 1 hour
[13] = 1 mg/kg intraperitoneally, 2 hours
[14] = 1 mg/kg intraperitoneally, 4 hours
[15] = 1 mg/kg intraperitoneally, 24 hours

COc1ccc(CCN(C)CCCC(C#N)(c2ccc(OC)c(OC)c2)C(C)C)cc1OC (stereo not drawn) [Finoptin, reference compound]
Percentage of survival [1]: 50% | Number of survived animals after 19 days [1]: 6 | changes in cardiomyocytes ([2]; 4th day): Necrosis and eosinophilia, as well as contracture alterations of muscular cells are observed in a half of the studied animals | changes in interstitial tissue ([2]; 4th day): edema is decreased, in a half of the animals a diffusive round-cell infiltration is observed, the formation of granulomae is similar to that of the animals of the control group | changes in vessels ([2]; 4th day): injuries of the vascular system are less clearly pronounced as compared to adrenaline; non-uniform distribution of endothelium and infiltration of adventita of arteries with lymphoid cells are insignificant | necrobiotic regions in the wall [2, 7]: 0/6 | necrosis of more than 5 cells [2, 7]: 0/6 | wall necrosis (vessels) [2, 7]: 0/6 | changes in cardiomyocytes ([2]; 8th day): granular-lumpy decomposition, eosinophilia and contructure type pathology are more pronounced than in the group of animals administered with the preparation according to the present invention, but less pronounced as compared to the control group (adrenaline) | changes in interstitial tissue ([2]; 8th day): a more intensive growth of the scarring tissue is observed as compared to the group of animals administered with the preparation according to the present invention and an insignificant decrease as compared to the control group (adrenaline) | diffusive round-cell infiltration [2, 8]: 0/6 | edema (interstitial tissue) [2, 8]: 0/6 | necrobiotic regions in the wall [2, 8]: 0/6 | necrosis of more than 5 cells [2, 8]: 0/6 | nuclei (pyknosis) [2, 8]: 0/6 | plethora of the vessels [2, 8]: 0/6 | wall necrosis (vessels) [2, 8]: 0/6 | changes in cardiomyocytes ([2]; 12th day): Eosinophilia is retained and the contructure type changes are more clearly pronounced than in the group administered with the preparation according to the present invention | changes in interstitial tissue ([2]; 12th day): an intensive formation of the scarring tissue occurs more noticeably than in the group of animals administered with the preparation according to the present invention | changes in vessels ([2]; 12th day): certain changes are observed on the part of endothelial cells (swelling) | Nuclei (pykhnosis) [2, 9]: 0/6 | diffusive round-cell infiltration [2, 9]: 0/6 | edema (interstitial tissue) [2, 9]: 0/6 | infiltration of the adventitia with lymphoid cells [2, 9]: 0/5 | necrobiotic regions with changes in the vessel wall [2, 9]: 0/6 | necrosis of more than 5 cells [2, 9]: 0/6 | plethora of the vessels [2, 9]: 0/6 | wall necrosis (vessels) [2, 9]: 0/6 | changes in cardiomyocytes ([2]; 19th day): By the 19th day these changes are getting less noticeable; also recorded: In half of the animals a moderately pronounced granular-lumpy decomposition is retained along with eosinophilia, cell necroses and contructure type changes | changes in vessels ([2]; 19th day): no changes are detected on the part of the coronary vessels | infiltration of the adventitia with lymphoid cells [2, 10]: 0/5 | necrobiotic regions with changes in the vessel wall [2, 10]: 0/5 | necrosis of more than 5 cells [2, 10]: 0/5 | nuclei (pyknosis) [2, 10]: 0/5 | plethora of the vessels [2, 10]: 0/5

COC(=O)C1=C(C)NC(C)=C(C(=O)OC)C1c1ccccc1[N+](=O)[O-] [Nifedipine, reference compound]
Variation of arterial pressure, diastolic [3, 11]: -8 % of the initial | Variation of arterial pressure, systolic [3, 11]: -4 % of the initial | lowering of diastolic pressure [3, 11]: 7.6% | lowering of systolic pressure [3, 11]: 4.3% | Variation of arterial pressure, diastolic [3, 12]: -14 % of the initial | Variation of arterial pressure, systolic [3, 12]: -11 % of the initial | Variation of arterial pressure, diastolic [3, 13]: -21 % of the initial | Variation of arterial pressure, systolic [3, 13]: -8 % of the initial | Variation of arterial pressure, diastolic [3, 14]: -31 % of the initial | Variation of arterial pressure, systolic [3, 14]: -11 % of the initial | Variation of arterial pressure, diastolic [3, 15]: 0 % of the initial | Variation of arterial pressure, systolic [3, 15]: 0 % of the initial | effect upon expiration of 8 hours ([3]; 8 hours): substantially discontinued | Variation of arterial pressure, diastolic ([4]; 30 minutes): -14 % of the initial | Variation of arterial pressure, systolic ([4]; 30 minutes): -10 % of the initial | Variation of arterial pressure, diastolic ([4]; 1 hour): -18 % of the initial | Variation of arterial pressure, systolic ([4]; 1 hour): -14 % of the initial | Variation of arterial pressure, diastolic ([4]; 2 hours): -16 % of the initial | Variation of arterial pressure, systolic ([4]; 2 hours): -10 % of the initial | Variation of arterial pressure, diastolic ([4]; 4 hours): -20 % of the initial | Variation of arterial pressure, systolic ([4]; 4 hours): -18 % of the initial | Variation of arterial pressure, diastolic ([4]; 24 hours): 0 % of the initial | Variation of arterial pressure, systolic ([4]; 24 hours): 0 % of the initial | duration of effect [5]: ≤ 8 h

CC(C)NCC(O)COc1cccc2ccccc12 (stereo not drawn) [Obzidan]
Percentage of survival [1]: 50% | Number of survived animals after 19 days [1]: 6

CC(C)NCC(O)COc1cccc2ccccc12 (stereo not drawn) [inderal]
inotropic effect [6]: negative inotropic effect

C=CCOc1ccccc1OCC(O)CNC(C)C (stereo not drawn) [oxyprenolol]
inotropic effect [6]: negative inotropic effect
